Values quoted from earlier work in patent US9730952B2, “Methods for treating and preventing mucositis” (Indena S.p.A., priority 2006, dated 2017).

How the values were obtained:
[1] = test system: numerous strains of Candida and other pathogenic fungi

Compound	concentration inhibiting growth of Gram+ and Gram− bacteria (Gram+ and Gram− bacteria)	concentration inhibiting growth of numerous strains of Candida and other pathogenic fungi [1]
CN1Cc2c(ccc3c2OCO3)[C@@H]2[C@H]1c1cc3c(cc1C[C@@H]2O)OCO3 [chelidonine]	nanomolar concentrations	nanomolar concentrations
COc1ccc2c(c[n+](C)c3c4cc5c(cc4ccc23)OCO5)c1OC [chelerythrine]	nanomolar concentrations	nanomolar concentrations
